Patent US9133219B2, “Bicyclic antibiotics” (Basilea Pharmaceutica AG, priority 2009, dated 2015)
Values after ≈ are worked out from the molar mass of the structure shown. Like-named read-outs stand apart in the source and are kept apart here.

What was measured:
Assay type in all cases: cell-based
Streptococcus pneumoniae = experiment: Anti-microbial activity assay, MIC by broth microdilution (CAMHB with 5% horse serum); conditions: for MIC: Streptococcus pneumoniae
Procedure: (§1) Anti-Microbial Activity Assay.
(§2) The antibacterial activity of compounds is determined by the minimal inhibitory concentration (MIC) method. MICs for all bacteria except pneumococci and Haemophilus influenzae are obtained by broth microdilution with cation-adjusted Mueller-Hinton broth (CAMHB; BBL), according to CLSI guidelines (National Committee for Clinical Laboratory Standards. 2003. Methods for dilution antimicrobial susceptibility tests for bacteria that grow aerobically, 5th ed.; approved standard M7-A6. National Committee for Clinical Laboratory Standards, Wayne, Pa.), with the following modifications: (i) for pneumococci CAMHB is supplemented with 5% (^v/v) horse serum; (ii) for Haemophilus influenzae CAMHB is supplemented with 5% (^v/v) Fildes enrichment (BBL) (Pankuch, G. A., Hoellman, D. B., Lin, G., Bajaksouzian, S., Jacobs, M. R., and Appelbaum, P. C. 1998. Activity of HMR 3647 compared to those of five agents against Haemophilus influenzae and Moraxella catarrhalis by MIC determination and time-kill assay. Antimicrob. Agents Chemother. 42:3032-3034). Microtiter plates are incubated at 35° C. in ambient air for 20 to 24 h, then inspected using an illuminated microtiter plate reader fitted with a magnifying mirror (MIC 2000; Cooke Laboratory Products, Alexandria, Va.). Compounds of the present invention are tested against several bacteria strains comprising some Acinetobacter baumannii, Enterococcus faecalis, Enterococcus faecitan, Escherichia coli, Haemophilus influenzae, Klebsiella pneumoniae, Pseudomonas aeruginosa, Staphylococcus aureus, Staphylococcus epidermidis and Streptococcus pneumoniae.

[1] = system: Staphylococcus aureus and/or Staphylococcus epidermidis; experiment: MIC summary statement, staphylococci; conditions: generally, for Staphylococcus aureus and/or Staphylococcus epidermidis
Procedure: as §1, §2

[2] = system: Staphylococcus epidermidis; experiment: Anti-microbial activity assay, MIC by broth microdilution; conditions: strain ATCC14990; for MIC: Staphylococcus epidermidis
Procedure: as §1, §2

Escherichia coli = experiment: as above; conditions: for MIC: Escherichia coli
Procedure: as §1, §2

Staphylococcus aureus = experiment: as above; conditions: for MIC: Staphylococcus aureus
Procedure: as §1, §2

[3] = strain ATCC49619, CAMHB with 5% horse serum, read-out: MIC Streptococcus pneumoniae ATCC49619
[4] = strain UB1005, read-out: MIC Escherichia coli UB1005
[5] = strain ATCC29213, read-out: MIC Staphylococcus aureus ATCC29213
[6] = strain ATCC49619, CAMHB with 5% horse serum
[7] = S. pneumoniae ATCC49619, comparison of C4 and C3 position of the methoxyquinoline, same side chain, read-out: MIC
[8] = E. coli UB1005, comparison of C4 and C3 position of the methoxyquinoline, same side chain, read-out: MIC
[9] = S. aureus ATCC29213, comparison of C4 and C3 position of the methoxyquinoline, same side chain, read-out: MIC

Row | Compound | MIC (Streptococcus pneumoniae; [3]) [µg/mL] | MIC [2] [µg/mL] | MIC (Escherichia coli; [4]) [µg/mL] | MIC (Staphylococcus aureus; [5]) [µg/mL] | other results
1 | COc1ccc2ncc(OCCN3CCC(NC(=O)c4ccc5c(c4)NC(=O)CS5)CC3)nc2c1 [Example 1, 3-oxo-3,4-dihydro-2H-benzo[1,4]thiazine-6-carboxylic acid {1-[2-(7-methoxy-quinoxalin-2-yloxy)-ethyl]-piperidin-4-yl}-amide] | 4 (≈ 8.1 µM) | ≤ 2 | 8 (≈ 16.2 µM) | ≤ 2 | MIC [1]: ≤ 2 µg/mL
2 | COc1ccc2ncc(OCC[C@H]3CC[C@H](NC(=O)c4ccc5c(n4)NC(=O)CO5)CC3)cc2n1 [Example 3, 3-oxo-3,4-dihydro-2H-pyrido[3,2-b][1,4]oxazine-6-carboxylic acid {trans-4-[2-(6-methoxy-[1,5]naphthyridin-3-yloxy)-ethyl]-cyclohexyl}-amide] | 16 (≈ 33.5 µM) | ≤ 2 | > 32 | ≤ 2 | MIC [1]: ≤ 2 µg/mL
3 | COc1ccc2ncc(OCC[C@H]3CC[C@H](NC(=O)c4ccc5c(c4)NC(=O)CS5)CC3)nc2c1 [Example 4, 3-oxo-3,4-dihydro-2H-benzo[1,4]thiazine-6-carboxylic acid {trans-4-[2-(7-methoxy-quinoxalin-2-yloxy)-ethyl]-cyclohexyl}-amide] | > 32 | ≤ 2 | > 32 | ≤ 2 | MIC [1]: ≤ 2 µg/mL
4 | COc1ccc2ncc(OCC[C@H]3CC[C@H](NC(=O)c4ccc5c(c4)NC(=O)CO5)CC3)cc2n1 [Example 6, 3-oxo-3,4-dihydro-2H-benzo[1,4]oxazine-6-carboxylic acid {trans-4-[2-(6-methoxy-[1,5]naphthyridin-3-yloxy)-ethyl]-cyclohexyl}-amide] | 4 (≈ 8.39 µM) | ≤ 2 | > 32 | ≤ 2 | MIC [1]: ≤ 2 µg/mL
5 | COc1ccc2ncc(OCCN3CCC(N(C)Cc4ccc5c(c4)OCCO5)CC3)nc2c1 [Example 10, (2,3-dihydro-benzo[1,4]dioxin-6-ylmethyl)-{1-[2-(7-methoxy-quinoxalin-2-yloxy)-ethyl]-piperidin-4-yl}-methyl-amine] | 8 (≈ 17.2 µM) | 8 (≈ 17.2 µM) | > 32 | 4 (≈ 8.61 µM) | –
6 | CCC(Oc1cnc2ccc(OC)cc2n1)N1CCCC(NCc2ccc3c(c2)NC(=O)CS3)C1 (centres unmarked) [Example 11, 6-({1-[1-(7-methoxy-quinoxalin-2-yloxy)-propyl]-piperidin-3-ylamino}-methyl)-4H-benzo[1,4]thiazin-3-one] | 4 (≈ 8.1 µM) | 4 (≈ 8.1 µM) | 16 (≈ 32.4 µM) | 4 (≈ 8.1 µM) | –
7 | COc1cccc2ncc(OCCN3CCC(NC(=O)c4ccc5c(c4)NC(=O)CS5)CC3)nc12 [Example 12, 3-oxo-3,4-dihydro-2H-benzo[1,4]thiazine-6-carboxylic acid {1-[2-(8-methoxy-quinoxalin-2-yloxy)-ethyl]-piperidin-4-yl}-amide] | 16 (≈ 32.4 µM) | 4 (≈ 8.1 µM) | ≥ 32 | 4 (≈ 8.1 µM) | –
8 | O=C1CSc2ccc(C(=O)NC3CCN(CCOc4cnc5ccc([N+](=O)[O-])cc5n4)CC3)cc2N1 [Example 13, 3-oxo-3,4-dihydro-2H-benzo[1,4]thiazine-6-carboxylic acid {1-[2-(7-nitro-quinoxalin-2-yloxy)-ethyl]-piperidin-4-yl}-amide] | > 32 | > 32 | > 32 | 4 (≈ 7.87 µM) | –
9 | COc1ccc2ncc(OCCN3CCC(NC(=O)c4ccc5c(c4)NC(=O)CS5)CC3)nc2c1 [Example 21, 3-oxo-3,4-dihydro-2H-benzo[1,4]thiazine-6-carboxylic acid {1-[2-(7-methoxy-quinoxalin-2-yloxy)-ethyl]-piperidin-4-yl}-amide] | – | – | – | – | MIC Streptococcus pneumoniae ATCC49619 (Streptococcus pneumoniae; [6]): >32 µg/mL; MIC Staphylococcus epidermidis ATCC14990 [2]: 16 µg/mL (≈ 32.4 µM); MIC Escherichia coli UB1005 (Escherichia coli; strain UB1005): ≧32 mg/L; MIC Staphylococcus aureus ATCC29213 (Staphylococcus aureus; strain ATCC29213): 8 µg/mL (≈ 16.2 µM)
10 | COc1ccc2ncc(OCCN3CC(NC(=O)c4ccc5c(c4)NC(=O)CS5)C3)nc2c1 [Example 22, 3-oxo-3,4-dihydro-2H-benzo[1,4]thiazine-6-carboxylic acid {1-[2-(7-methoxy-quinoxalin-2-yloxy)-ethyl]-azetidin-3-yl}-amide] | 32 (≈ 68.7 µM) | 4 (≈ 8.59 µM) | 16 (≈ 34.4 µM) | 4 (≈ 8.59 µM) | –
11 | COc1ccc2ncc(OCCCN3CCC(NC(=O)c4ccc5c(c4)NC(=O)CS5)C3)nc2c1 (centres unmarked) [Example 23] | – | – | – | – | MIC Streptococcus pneumoniae ATCC49619 (Streptococcus pneumoniae; [6]): 16 µg/mL (≈ 32.4 µM); MIC Staphylococcus epidermidis ATCC14990 [2]: 4 µg/mL (≈ 8.1 µM); MIC Escherichia coli UB1005 (Escherichia coli; strain UB1005): 16 µg/mL (≈ 32.4 µM); MIC Staphylococcus aureus ATCC29213 (Staphylococcus aureus; strain ATCC29213): 4 µg/mL (≈ 8.1 µM)
12 | COc1ccc2ncc(OCCN3CCC(CNC(=O)c4cc5c(cc4Cl)SCC(=O)N5)CC3)nc2c1 [Example 24, 7-chloro-3-oxo-3,4-dihydro-2H-benzo[1,4]thiazine-6-carboxylic acid {1-[2-(7-methoxy-quinoxalin-2-yloxy)-ethyl]-piperidin-4-ylmethyl}-amide] | 16 (≈ 29.5 µM) | 8 (≈ 14.8 µM) | 4 (≈ 7.38 µM) | 8 (≈ 14.8 µM) | –
13 | COc1ccc2ncc(OCCN3CCC(N(C)Cc4ccc5c(c4)NC(=O)CS5)CC3)nc2c1 [Example 25, 6-[({1-[2-(7-methoxy-quinoxalin-2-yloxy)-ethyl]-piperidin-4-yl}-methyl-amino)-methyl]-4H-benzo[1,4]thiazin-3-one] | 16 (≈ 32.4 µM) | 16 (≈ 32.4 µM) | 8 (≈ 16.2 µM) | 8 (≈ 16.2 µM) | –
14 | COc1ccc2ncc(OCCN3CCC(CNC(=O)c4cc(-c5cccs5)on4)C3)nc2c1 (centres unmarked) [Example 26, 5-thiophen-2-yl-isoxazole-3-carboxylic acid {1-[2-(7-methoxy-quinoxalin-2-yloxy)-ethyl]-pyrrolidin-3-ylmethyl}-amide] | 8 (≈ 16.7 µM) | 16 (≈ 33.4 µM) | > 32 | 4 (≈ 8.34 µM) | –
15 | COc1ccc2ncc(OCCCN3CCC(CNC(=O)c4cc5c(cc4Cl)SCCN5)C3)nc2c1 (centres unmarked) [Example 27, 7-chloro-3,4-dihydro-2H-benzo[1,4]thiazine-6-carboxylic acid {1-[3-(7-methoxy-quinoxalin-2-yloxy)-propyl]-pyrrolidin-3-ylmethyl}-amide] | 32 (≈ 60.6 µM) | 32 (≈ 60.6 µM) | 16 (≈ 30.3 µM) | 8 (≈ 15.1 µM) | –
16 | COc1ccc2ncc(C(=O)OC[C@H]3CC[C@H](N(C)Cc4ccc5c(c4)OCCO5)CC3)cc2c1 [Example 32, 6-methoxy-quinoline-3-carboxylic acid trans-4-[(2,3-dihydro-benzo[1,4]dioxin-6-ylmethyl)-methyl-amino]-cyclohexylmethyl ester] | 32 (≈ 67.1 µM) | 16 (≈ 33.6 µM) | > 32 | 8 (≈ 16.8 µM) | –
17 | COc1ccc2ncc(C(=O)OC[C@H]3CC[C@H](NCc4ccc5c(c4)OCCO5)CC3)cc2c1 [Example 33, 6-methoxy-quinoline-3-carboxylic acid trans-4-[(2,3-dihydro-benzo[1,4]dioxin-6-ylmethyl)-amino]-cyclohexylmethyl ester] | 8 (≈ 17.3 µM) | 8 (≈ 17.3 µM) | > 32 | 4 (≈ 8.65 µM) | –
18 | CCN(Cc1ccc2c(c1)OCCO2)[C@H]1CC[C@H](COC(=O)c2cnc3ccc(OC)cc3c2)CC1 [Example 34, 6-methoxy-quinoline-3-carboxylic acid trans-4-[(2,3-dihydro-benzo[1,4]dioxin-6-ylmethyl)-ethyl-amino]-cyclohexylmethyl ester] | > 32 | > 32 | > 32 | 8 (≈ 16.3 µM) | –
19 | COc1ccc2ncc(SCCN3CCC(NCc4ccc5c(c4)NC(=O)CO5)CC3)nc2c1 [Example 40] | – | – | – | – | MIC Streptococcus pneumoniae ATCC49619 (Streptococcus pneumoniae; [6]): ≦2 mg/L; MIC Staphylococcus epidermidis ATCC14990 [2]: ≦2 mg/L; MIC Escherichia coli UB1005 (Escherichia coli; strain UB1005): ≦2 mg/L; MIC Staphylococcus aureus ATCC29213 (Staphylococcus aureus; strain ATCC29213): ≦2 mg/L
20 | COc1ccc2nccc(OC[C@H]3CC[C@H](NCc4ccc5c(c4)OCCO5)CC3)c2c1 [reference compound] | – | – | – | – | MIC (Streptococcus pneumoniae; [7]): 0.5 µg/mL (≈ 1.15 µM); MIC (Escherichia coli; [8]): 16 µg/mL (≈ 36.8 µM); MIC (Staphylococcus aureus; [9]): 0.5 µg/mL (≈ 1.15 µM)
21 | COc1ccc2nccc(OC[C@H]3CC[C@H](NCc4ccc5c(c4)NC(=O)CO5)CC3)c2c1 [reference compound] | – | – | – | – | MIC (Streptococcus pneumoniae; [7]): 2 µg/mL (≈ 4.47 µM); MIC (Escherichia coli; [8]): 1 µg/mL (≈ 2.23 µM); MIC (Staphylococcus aureus; [9]): 1 µg/mL (≈ 2.23 µM)
22 | COc1ccc2ncc(OC[C@H]3CC[C@H](NCc4ccc5c(c4)OCCO5)CC3)cc2c1 [reference compound] | – | – | – | – | MIC (Streptococcus pneumoniae; [7]): 32 µg/mL (≈ 73.6 µM); MIC (Escherichia coli; [8]): > 32 µg/mL; MIC (Staphylococcus aureus; [9]): > 32 µg/mL
23 | COc1ccc2ncc(OC[C@H]3CC[C@H](NCc4ccc5c(c4)NC(=O)CO5)CC3)cc2c1 [reference compound] | – | – | – | – | MIC (Streptococcus pneumoniae; [7]): 32 µg/mL (≈ 71.5 µM); MIC (Escherichia coli; [8]): > 32 µg/mL; MIC (Staphylococcus aureus; [9]): > 32 µg/mL
